# US20170340689A1, “TITRATED EXTRACTS OF CYNARA SCOLYMUS FOR USE IN THE TREATMENT OF MESOTHELIOMA” (ABOCA S.P.A SOCIETÀ AGRICOLA, priority 2014, published 2017)
# Tested on: untransformed HMC cells
# Test: ATPlite cell vitality assay in co-treatment with pemetrexed, untransformed cells
# Assay type: cell-based, human
# Conditions: extract at non-cytotoxic dose 6 μg/ml
# Description: 4.1 Association of Extract of Cynara Spp. and Pemetrexed with ATPlite™ Assay
smiles,measurement,value
"Nc1nc2[nH]cc(CCc3ccc(C(=O)N[C@@H](CCC(=O)O)C(=O)O)cc3)c2c(=O)[nH]1 [PMTX, pemetrexed]","cell vitality of untransformed HMC cells, pemetrexed alone or with extract",highly toxic for the non-tumour cells
